Literature values in patent US7578964B2, “Powder injection molding composition and method of use” (priority 2001, dated 2009).

Experiments:
[1] = for Octanol - Water Partition Coefficient log POW: Handbook of Environmental Data on Organic Compounds, 4th Edition
[2] = solute solubility in water at 298.15 K; NIST Chemistry WebBook

Structure (SMILES)	Octanol - Water Partition Coefficient log POW [1]	Henry's Law Constant k^0H [2]	log POW value ([1]; stated in text as known to those skilled in the art)
CC(C)=O [Acetone]	−0.24	30 mol/Kg*bar	–
c1ccccc1 [Benzene]	–	0.18 mol/Kg*bar	–
ClC(Cl)(Cl)Cl [Carbon Tetrachloride]	2.64	0.03 mol/Kg*bar	–
CCOCC [Diethyl Ether]	0.77	0.78-1.2 mol/Kg*bar	–
C1COCCO1 [Dioxane]	−0.42	–	–
CCO [Ethanol]	–	200 mol/Kg*bar	–
CCOC(C)=O [Ethyl Acetate]	0.66	8.9 mol/Kg*bar	–
CCCCCC [Hexane]	4	0.001 mol/Kg*bar	–
CC(C)O [Isopropanol]	–	130 mol/Kg*bar	–
CCC(C)=O [MEK]	0.28	–	–
CO [Methanol]	−0.82	–	–
ClCCl [Methylene Chloride]	–	0.41 mol/Kg*bar	–
C1CCOC1 [THF]	0.45	–	–
Cc1ccccc1 [Toluene]	–	0.15 mol/Kg*bar	–
ClC=C(Cl)Cl [Trichloroethylene]	2.42	0.11 mol/Kg*bar	–
O=C1CCCCCN1 [caprolactam, ε-caprolactam]	–	–	about 0.12
